Like-named read-outs stand apart in the source and are kept apart here.
How the values were obtained:
[1] = pharmacokinetics after IV and IP administration; assay type: in vivo, Balb/c mice; conditions: for concentration at 0.25 h: 0.250 h
prostate adenocarcinoma = test: Hi-myc spontaneous prostate cancer transgenic model; assay type: in vivo, Hi-myc mice; conditions: 30 mg/kg I.P., 9 times for the first three weeks
Description: FIG. 19A-19F. PDZ1i suppresses prostate cancer metastasis and tumor progression. FIG. 19A) Survival data for athymic nude mice in which DMSO or PDZ1i pre-treated ARCaPM cells were injected. FIG. 19B) Survival data for athymic nude mice which were injected with (n=5, each group) ARCaPM-Luc (1×10^6 cells in 100 μl saline) through an intracardiac route. Mice received either vehicle or PDZ1i every alternative day (9 injections during the first […]) and maintained until they needed to be euthanized. FIG. 19C) Survival data for C57BL/6 mice injected through the intracardiac route with RM1-Luc. Vehicle or PDZ1i was administered through intraperitoneal injection every alternate day (total 3 injections during the first week). Survival curves were generated using 6 control vehicle-treated and 5 PDZ1i-treated. Kaplan—Meier survival curves were prepared using Graph Pad software. […] Graphical representation of the average prostate weights from control and treated groups. FIG. 19E and FIG. 19F) Photomicrographs representing the histological changes in prostate sections obtained from 6-month old Hi-Myc mice receiving either vehicle (FIG. 19E) or PDZ1i (FIG. 19F). To evaluate potential therapeutic efficacy of PDZ1i four sets of in vivo experiments were conducted. […]

ARCaPM-Luc cells = test: ARCaPM-Luc experimental metastasis model, PDZ1i treatment; assay type: in vivo, athymic nude mice; conditions: 30 mg/kg body weight I.P.
Description: FIG. 19A-19F. PDZ1i suppresses prostate cancer metastasis and tumor progression. FIG. 19A) Survival data for athymic nude mice in which DMSO or PDZ1i pre-treated ARCaPM cells were injected. FIG. 19B) Survival data for athymic nude mice which were injected with (n=5, each group) ARCaPM-Luc (1×10^6 cells in 100 μl saline) through an intracardiac route. Mice received either vehicle or PDZ1i every alternative day (9 injections during the first three months) and maintained until they needed to be euthanized. FIG. 19C) Survival data for C57BL/6 mice injected through the intracardiac route with RM1-Luc. Vehicle or PDZ1i was administered through intraperitoneal injection every alternate day (total 3 injections during the first week). Survival curves were generated using 6 control vehicle-treated and 5 PDZ1i-treated. Kaplan—Meier survival curves were prepared using Graph Pad software. […] Graphical representation of the average prostate weights from control and treated groups. FIG. 19E and FIG. 19F) Photomicrographs representing the histological changes in prostate sections obtained from 6-month old Hi-Myc mice receiving either vehicle (FIG. 19E) or PDZ1i (FIG. 19F).
To evaluate potential therapeutic efficacy of PDZ1i four sets of in vivo experiments were conducted. […]

[2] = Balb/c, mouse, plasma, IP 30 mg/kg
[3] = Balb/c, mouse, plasma, IP 30 mg/kg, read-out: Plasma Concentration, Mean IP
[4] = Balb/c, mouse, plasma, IV 3 mg/kg, read-out: Plasma Concentration, Mean IV

Cc1cc(NC(=O)c2nc3[nH]c4c(c(=O)n3n2)CCC4)c(C)cc1NC(=O)CCc1nnc(-c2ccccc2)o1 [113B7, N-(2,5-dimethyl-4-(3-(5-phenyl-1,3,4-oxadiazol-2-yl)propanamido)phenyl)-8-oxo-5,6,7,8-tetrahydro-4H-cyclopenta[d][1,2,4]triazolo[1,5-a]pyrimidine-2-carboxamide]
signs of toxicity during the PK experiment ([1]; 3.0 mg/Kg IV and 30.0 mg/Kg IP, mice): lack of adverse signs of toxicity
half-life ([1]; Balb/c, mouse, intravenous, intraperitoneal, in each route: 3.0 mg/Kg IV and 30.0 mg/Kg IP, mice, serum, read-out: T1/2 (very slow clearance)): > 9 h
bioavailability ([1]; Balb/c, mouse, plasma, intraperitoneal, 30 mg/kg, IP 30 mg/kg versus IV 3 mg/kg, read-out: Bioavailability (IP/IV)): 81.2%
AUC ([1]; Balb/c, mouse, plasma, ip, 30 mg/kg, IP 30 mg/kg, read-out: AUC0-int (first line)): 975 µg·h/mL
AUC ([1]; Balb/c, mouse, plasma, ip, 30 mg/kg, IP 30 mg/kg, read-out: AUC0-int (second line)): 1180 µg·h/mL
AUC ([1]; Balb/c, mouse, plasma, iv, 3 mg/kg, IV 3 mg/kg, read-out: AUC0-int (first line)): 120 µg·h/mL
AUC ([1]; Balb/c, mouse, plasma, iv, 3 mg/kg, IV 3 mg/kg, read-out: AUC0-int (second line)): 124 µg·h/mL
Cmax [1, 2]: 98200 ng/mL
Tmax [1, 2]: 0.25 h
concentration at 0.25 h [1, 3]: 98200 ng/mL
concentration at 1 h [1, 3]: 69200 ng/mL
concentration at 2 h [1, 3]: 59000 ng/mL
concentration at 6 h [1, 3]: 54600 ng/mL
concentration at 12 h [1, 3]: 42800 ng/mL
concentration at 24 h [1, 3]: 15100 ng/mL
half-life ([1]; Balb/c, mouse, plasma, IP 30 mg/kg, read-out: T1/2 (converted)): 9.42 h
C0 ([1]; Balb/c, mouse, plasma, IV 3 mg/kg): 35000 ng/mL
concentration at 0.25 h [1, 4]: 29500 ng/mL
concentration at 1 h [1, 4]: 17700 ng/mL
concentration at 2 h [1, 4]: 11600 ng/mL
concentration at 6 h [1, 4]: 6110 ng/mL
concentration at 12 h [1, 4]: 3360 ng/mL
concentration at 24 h [1, 4]: 541 ng/mL
half-life ([1]; Balb/c, mouse, plasma, IV 3 mg/kg, read-out: T1/2 (converted)): 5.06 h
half-life ([1]; Balb/c, mouse, serum, intravenous and intraperitoneal, in vivo, read-out: half-life (t1/2) (converted)): 9 h
bioavailability ([1]; Balb/c, mouse, serum, ip, 30 mg/kg, administered I.P. 30.0 mg/Kg, mice, read-out: bioavailability): 80%
bioavailability ([1]; administered I.P. 30.0 mg/Kg, mice, 30 mg/kg): ~100%
size and weight of prostates (prostate adenocarcinoma): significantly less
metastatic lesions by BLI (ARCaPM-Luc cells): significantly fewer lesions
survival (ARCaPM-Luc cells): prolonged survival

Reference: patent US11008325B2, “Inhibitors of cancer invasion, attachment, and/or metastasis” (VIRGINIA COMMONWEALTH UNIVERSITY, priority 2016, dated 2021)
